Experimental data published in patent publication US10604741B2, “Compositions and methods for enhancing virus replication” (TURNSTONE LIMITED PARTNERSHIP, priority 2013, dated 2020).

Experiments:
VSVΔ51 in 786-0 cells [1] = type: cell-based, human; conditions: 24 hours
VSVΔ51 in 786-0 cells [2] = type: cell-based, human

Compound | FGF2-enhancement of virus replication at different MOIs (VSVΔ51 in 786-0 cells [1]) | effect on FGF2-induced enhancement of virus replication (VSVΔ51 in 786-0 cells [2])
FGF2: recombinant human FGF2 protein; amino acid sequence shown in SEQ ID NO: 9 | independent of the MOIs used | 
CCN(CC)CCCCNc1ncc2cc(-c3cc(OC)cc(OC)c3)c(NC(=O)NC(C)(C)C)nc2n1 [PD173074] |  | reduces FGF2-induced enhancement of virus replication
